Entries after “also recorded” stand apart in the source; their conditions may differ.
How the values were obtained:
[1] = tested on: T1, immunocaptured human heart PDH complex; test: Immunocapture microplate PDH activity assay (NADH production) with known inhibitors and activators; format: biochemical; settings: agent added to wells with already immunocaptured PDH; unmodified human heart PDH control = 100%
T1 construct: tissue Analytic Biological Services, Inc; host or cells: human heart mitochondria, lauryl maltoside solubilized, captured on anti-E2 mAb plates
Method: FIG. 3 is a graph summarizing the results of tests for specific inhibition and activation of immunocaptured PDH activity. Known inhibitors and activators as shown were added directly to wells of microtiter plates and incubated with already immunocaptured PDH. Activity of the complex was monitored by measuring production of NADH per min/mg mitochondrial protein. Unmodified activity of human heart PDH (control) was set to 100%.
96-well ELISA plates (Falcon Probind) were coated with Goat-anti-mouse IgG Fc specific antibody (0.5 μg/well) in PBS buffer overnight at 4° C. After 3 washings, wells were coated with monoclonal anti-PDH-E2 subunit at 0.5 μg/well and incubated for 1-2 hours at room temperature. The wells were washed 3-4 times and covered with a 0.5% bovine serum albumin solution for 1 hour to minimize non-specific protein binding to the wells. After blocking, wells were washed 5 times and 100 μl of solubilized mitochondria applied and incubated in the wells at room temperature for 1 hour. After incubation, the supernatant was collected and reapplied to a second antibody-covered plate to test for residual activity.
100 μl/well of the reaction mixture (50 mM Tris, pH 7.5; 2 mM β-NAD+, 225 μM TPP, 2 mM pyruvate, 150 μM Coenzyme A, 2.6 mM cysteine, 1 mM MgCl2) was applied and NADH production was monitored either spectrophotometrically at […] or by measuring fluorescence in the presence of 15 μM resazurin and 0.5 U/ml diaphorase using an excitation wavelength of 530 nm and an emission wavelength of 590 nm for up to […]. […] Activity was calculated as nMol NADH/min/mg of mitochondrial protein.
Monoclonal anti-E2 antibodies were attached to 96-well microplates to which had been prebound goat anti-mouse IgG Fc mAbs, as described in Materials and Methods. […] Unbound protein was removed by extensive washings and NADH production then measured by the increase of absorbance at 340 nm or by coupled fluorescence assay, in the presence of NAD+, pyruvate, CoA, TPP, MgCl2, and cysteine as a reducing agent in 50 mM Tris-HCl buffer pH 7.8. […]

[2] = tested on: E1α subunit of immunoprecipitated PDH complex; test: 2D-gel isoelectric focusing and Western blot with E1α-specific mAb to follow phosphorylation of immunoprecipitated PDH; settings: pH gradient 10 to 3; compared with untreated enzyme

Compound | Inhibition of immunocaptured PDH activity [1] | Level of phosphorylation of E1α (isoelectric point shift) [2] | Increase of PDH activity [1] [%]
Nc1ncnc2c1ncn2[C@@H]1O[C@H](COP(=O)(O)OP(=O)(O)OP(=O)(O)O)[C@@H](O)[C@H]1O [ATP] | about 70% | greatly increased the level of phosphorylation; also recorded: increases the phosphorylation patterns of E1α | –
O=C(O)C(Cl)Cl [Dichloroacetate] | – | – | 34
O=[As]O [sodium arsenite] | > 98% | – | –
